Measurements published in US20190084909A1, “F[…] COMPOUNDS, COMPOSITIONS AND USES THEREOF” (YISSUM RESEARCH DEVELOPMENT COMPANY OF THE HEBREW …, priority 2015, published 2019).
Values joined by “and” are separate entries in the source; they are usually repeats but may differ in a detail not shown here. Equal values may be shown once.

Legend:
Male Swiss mice = test: Pre-pulse inhibition (PPI), impairment induced by amphetamine; type: in vivo
Protocol: Male Swiss mice (25-30 g) originated from the Central Animal Farm of the School of Medicine of Ribeirão Preto (FMRP-USP) were maintained in groups of five animals per box (41×33×17 cm) in a temperature controlled room (24±2° C.) with a 12×12 h light-dark cycle. They received water and food ad libitum throughout the study period.
Cannabidiol (CBD; THC Pharm, 15-60 mg/kg) and HU-485 (1-10 mg/kg) were administered intraperitoneally (ip). All drugs were dissolved in 2% Tween 80 in sterile saline.
The PPI test was conducted simultaneously in two identical startle response systems (Med Associates, USA). A continuous acoustic signal provided a background white noise level of 65 dB. The pulse consists of a 105 dB white noise burst with a rise/decay of 5 ms and duration of 20 ms. The pre-pulse comprised pure 7000 Hz tones, 10 ms duration, with intensities set at 80, 85, and 90 dB. The setups were daily calibrated to ensure equal sensitivity throughout the experiments. Calibration was performed by adjusting the gain on the load cell amplifier to 150 arbitrary units (AU) at a standard weight appropriated for a 40 g mice. The limits of the load cell were −2047 to +2047 AU. Thirty min after the injection of the tested compounds mice received i.p. injections of amphetamine 10 mg/kg or vehicle. […] The first 10 pulse-alone trials allow for the within-session habituation to the startle stimulus and are not considered for PPI statistical analysis. The test consisted of 64 pseudo-random trials divided into eight different groups presented with an inter-stimulus interval of 30 s, and consisting of pulse alone (105 dB), pre-pulse alone (80, 85, or 90 dB), pre-pulse+pulse with 100 ms interval between pre-pulse and pulse, and no stimulus presented. […] Mean acoustic startle response to pulse-alone (P) trials and each pre-pulse+pulse (PP+P) trial was recorded for each subject. PPI was calculated by expressing the pre-pulse+pulse startle amplitude as a percentage of decrease from pulse-alone startle amplitude, according to the following formula: % PPI=100−[100×(PP+P/P)]. This transformation reduces statistical variability attributable to differences between animals and it is a direct PPI measure. Antipsychotic drugs typically attenuate PPI impairment induced by amphetamine.
Results were analyzed by one-way ANOVA followed by Duncan test. […]
Animals received a first injection of vehicle (V) or CBD, followed 30 min later, by vehicle (n=9) or amphetamine 10 mg/kg (V+amphetamine group=9 animals). PPI was evaluated at three-stimuli intensity (90, 85 and 80 dB). […]
Animals received a first injection of vehicle (V) or HU-485, followed 30 min later, by vehicle (n=7) or amphetamine 10 mg/kg (V+amphetamine group=7 animals). PPI was evaluated at three-stimuli intensity (90, 85 and 80 dB). […]

Swiss mice [1] = test: Forced swimming test (FST), mice; type: in vivo
Protocol: (§1) Male Wistar rats (220-250 g) and Swiss mice (25-30 g) originated from the Central Animal Farm of the School of Medicine of Ribeirio Preto (FMRP-USP) were maintained in groups of five animals per box (41×33×17 cm) in a temperature controlled room (24±2° C.) with a 12×12 h light-dark cycle. They received water and food ad libitum throughout the study period.
(§2) HU-474 (1, 3 and 10 mg/kg) was administered intraperitoneally (IP) in mice at 10 mL/kg volume and HU-475 (1, 3 and 10 nmol) was injected intra-dIPAG in rats. Both drugs were dissolved in 2% Tween 80 in sterile saline.
Animals were individually submitted for 6 min of forced swimming in glass cylinders (height 25 cm, diameter 17 cm) containing 10 cm of water. The mice were videotaped and the immobility time (characterized by slow movements necessary to avoid drowning) was measured during the last 4-min period. The water was changed after each trial to maintain the temperature at 23-25° C. and to prevent the influence of alarm substances (Zanelati et al., 2010).
(§3) Results from HU-475 and HU-474 tests in the elevated plus maze were analyzed by Kruskal-Wallis followed by Mann-Whitney tests. Data from animals tested in the FST were analyzed by one-way ANOVA followed by Duncan test.

Swiss mice [2] = test: Elevated plus maze (EPM), mice, HU-474 IP; type: in vivo
Protocol: as §1, §2
The wood EPM used to perform the experiments was located in a sound attenuated and temperature controlled room (23° C.), with one incandescent light (40 W) placed 1.3 m away from the maze. The apparatus consists of two opposing open arms (50×10 cm) without side walls, perpendicular to two enclosed arms (50×10×40 cm), with a central platform common to all arms (10×10 cm). The apparatus is elevated 50 cm above the ground and has an acrylic edge (1 cm) in the open arms to prevent animal falls. In this model, rodents naturally avoid the open arms, exploring more extensively the enclosed arms. Anxiolytic drugs increase the exploration in open arms without affecting the number of enclosed arms entries, which is usually used to assess general exploratory activity (File, 1992). Ten minutes after the last injection the animal was placed on the central platform of the maze with the head facing one of the enclosed arms. The test lasted for 5 min and was recorded. The animal behavior was analyzed with the help of the Anymaze Software (version 4.5, Stoelting). This software indicates the location of the animal in the EPM and automatically calculates the percentage of entries (Peo) and time spent in the open arms (Pto) and the number of entries in the enclosed arms (EA). Animals were only considered to enter an open or enclosed arm when 90% of their bodies were inside the region. All experiments were performed in the morning period (8 to 12 a.m.).
Similar to 5.1 except that the each arm measured 30×5 cm. 5.3 Forced Swimming Test (FST) Mice
as §3

male C57BL/6J mice = test: Pre-pulse inhibition (PPI) test, impairment induced by MK-801; type: in vivo
Protocol: The experiments were performed using male C57BL/6J mice weighting 25-30 g. The animals were maintained throughout the experimental period under standard laboratory conditions with free access to water and food will be used.
HU-474 (3 and 10 mg/kg) was dissolved in 2% Tween 80 in sterile saline (vehicle). MK-801 (a NMDA antagonist, 0.5 mg/kg, Sigma, USA) was dissolved in saline. Drugs were administered intraperitoneally (ip) at 10 mL/kg volume.
The animals (n=9-11/group) received i.p. administration of vehicle or HU-474 (3 and 10 mg/kg) followed, 30 minutes later, by saline or MK-801 (0.5 mg/kg), resulting in the following experimental groups: vehicle+saline, HU 10+saline, vehicle+MK-801, HU 3+MK-801, HU 10+MK-801. The animals were submitted to PPI test 20 minutes after the last drug injection.
The PPI was carried out in three consecutive steps. The first consisted of an acclimation period during which no stimulus was presented. In the second step, called habituation, only the stimulus that triggers the startle (pulse) was presented. […] During this session the stimuli are presented at regular intervals of 30 s, 8 presentations of each stimulus. The percentage of the PPI was expressed as the percent inhibition of startle amplitude in response to multiple presentations of the pulse preceded by pre-pulse (PP), depending on the amplitude of the response only to the pulse (P), which was obtained in the following formula: % PPI=100−((PP/P)×100). Using this formula 0% represents no difference between the amplitude of startle triggered only by the pulse or pulse preceded by the pre-pulse and therefore no pre-pulse inhibition. This transformation was performed in order to reduce the statistical variability attributable to differences between animals and represents a direct measure of pre-pulse inhibition (Issy et al., 2009).
The percentage of PPI was analyzed by repeated measures MANOVA with the treatment as the independent factor and the prepulse intensity (80, 85 and 90 dB) as repeated measure.

Swiss mice [3] = settings: i.p., doses tested 3, 10, 30 and 100 mg/kg; cited from earlier work
Swiss mice [4] = settings: single administration i.p., MK801 0.3-1 mg/kg i.p.; 1 and 15 mg/kg also tested; cited from earlier work
Male Wistar rats [5] = settings: intra-dlPAG; doses tested 15, 30 and 60 nmol; cited from earlier work
Swiss mice [6] = settings: cited from earlier work
rats = settings: Vogel punished licking test, intra-dlPAG; cited from earlier work
Male Wistar rats [7] = test: Elevated plus maze (EPM), rats, microinjection into the dorsolateral periaqueductal gray; type: in vivo
Protocol: as §1, §2
Rats were submitted to a stereotaxic surgery to unilaterally implant cannulae (9.0 mm, 0.6 mm OD) into the dIPAG (coordinates: lateral: −1.9 mm; depth: −4.3 mm; angle: 16° from lambda; Paxinos and Watson, 2005), fixed to the skull with acrylic cement (Campos & Guimarães, 2008). The surgeries were performed under anesthesia with tribromoethanol 2.5% (10.0 mL/kg, IP) and immediately after the animals received Veterinary Pentabiotic (0.2 mL, intramuscular) and analgesic (Banamine, 1.0 mL/kg, subcutaneous) to prevent infections and decrease post-surgical pain. After surgery, animals underwent a recovery period of 5-7 days before the behavioral tests.
Animals received unilateral microinjections of vehicle or HU-475 into the dIPAG before being submitted to the behavioral tests. To this aim, microneedles (10.0 mm, 0.3 mm OD), connected to a microsyringe (Hamilton, USA, […]) through a segment of polyethylene (P10) were inserted into the guide cannulae. Solutions were injected with the help of an infusion pump (KD Scientific, USA). A 0.2 μL solution volume was injected over 1 min. After the injections, the needles remained inserted in the cannulae for additional 30 seconds to prevent drug reflux (Campos & Guimarães, 2008).
The wood EPM used to perform the experiments was located in a sound attenuated and temperature controlled room (23° C.), with one incandescent light (40 W) placed 1.3 m away from the maze. The apparatus consists of two opposing open arms (50×10 cm) without side walls, perpendicular to two enclosed arms (50×10×40 cm), with a central platform common to all arms (10×10 cm). The apparatus is elevated 50 cm above the ground and has an acrylic edge (1 cm) in the open arms to prevent animal falls. In this model, rodents naturally avoid the open arms, exploring more extensively the enclosed arms. […] The test lasted for 5 min and was recorded. The animal behavior was analyzed with the help of the Anymaze Software (version 4.5, Stoelting). […]
as §3

CC(N)Cc1ccccc1 (stereo not shown) [amphetamine, reference compound]
effect on PPI (Male Swiss mice; amphetamine 10 mg/kg i.p., all intensities (90, 85, 80 dB), Duncan p<0.05): impaired PPI

C=C(C)[C@@H]1CCC(C)=CC1c1c(O)cc(CCCCC)c(F)c1O (stereo partly shown) [HU-474, 4′-fluoro-cannabidiol]
immobility time in the FST (Swiss mice [1]; dose of 3 mg/kg IP (printed 3 m/kg), p=0.019): decreased
immobility time in the FST (Swiss mice [1]; doses of 1 and 10 mg/kg IP): ineffective
potency relative to CBD (Swiss mice [1]; forced swimming test, comparison of effective doses): 10 times
number of enclosed arms entries (Swiss mice [2]; 1, 3 and 10 mg/kg IP): No effect
percentage of entries onto the open arms (Swiss mice [2]; 1, 3 and 10 mg/kg IP): No effect
percentage of time spent in the open arms (Swiss mice [2]; 1, 3 and 10 mg/kg IP, vs vehicle, X2=8.13, p<0.05): increased
effective dose (anxiolytic-like effect in the EPM) (Swiss mice [2]; systemic administration, bell-shaped dose-response curve): 3 mg/kg
effect on MK-801 PPI disruption (male C57BL/6J mice; 10 mg/kg i.p., MK-801 0.5 mg/kg, all prepulse intensities (80, 85, 90 dB), P<0.05): attenuated
effective dose against MK-801 PPI disruption (male C57BL/6J mice; i.p., 3 and 10 mg/kg tested): 10 mg/kg

C=C(C)[C@@H]1CCC(C)=C[C@H]1c1c(O)cc(CCCCC)cc1O [CBD, Cannabidiol]
dose producing an antidepressant-like effect in the forced swimming test (Swiss mice [3]): 30 mg/kg
effective dose attenuating PPI deficits caused by MK801 (Swiss mice [4]): 5 mg/kg
effective dose (anxiolytic-like effect in the EPM) (Male Wistar rats [5]): 30 nmol
dose able to attenuate the hyper-locomotion induced by MK801 (Swiss mice [6]): 30 mg/kg
effective doses, hyperlocomotion induced by d-amphetamine (Swiss mice [6]): 30 mg/kg and 60 mg/kg
dose producing an anxiolytic-like effect (rats): 30 nmol
effect on PPI impairment by amphetamine (Male Swiss mice; CBD 30 and 60 mg/kg ip, intensities of 85 and 80 dB, amphetamine 10 mg/kg): attenuated

C=C(CF)[C@@H]1CCC(C)=CC1c1c(OC(C)=O)cc(CCCCC)cc1OC(C)=O (stereo partly shown) [HU-475, 10-fluoro-cannabidiol diacetate]
number of enclosed arm entries (Male Wistar rats [7]; 1, 3 and 10 nmol intra-dlPAG): No effect
percentage of time spent in the open arms (Male Wistar rats [7]; 1, 3 and 10 nmol intra-dlPAG, vs vehicle, X2=8.5, p=0.075 (trend)): tended to do the same
percentage of entries onto the open arms (Male Wistar rats [7]; 1, 3 and 10 nmol intra-dlPAG, vs vehicle, X2=9.66, p<0.05): increased
potency relative to CBD (Male Wistar rats [7]; EPM, intra-dlPAG injection, comparison of effective doses): 10 times

C[C@]12N[C@H](Cc3ccccc31)c1ccccc12 [MK-801, reference compound]
effect on PPI (male C57BL/6J mice; MK-801 0.5 mg/kg i.p., all prepulse intensities, P<0.05): significant PPI disruption
